Test [1] concerns HT-29 human colon cancer cell line. Nature of the test: In vitro cytostatic effect, alamarBlue assay, HT-29. It counts as cell-based. The source says: Cell lines often function as the first model system of choice to study biological processes or to test the efficiency of drugs or drug conjugates and their cytotoxic effects. Immortal cell lines offer various benefits, for instance they are easy to handle, cost-effective and provide consistent sample and reproducible results. Nevertheless, cell lines also present the disadvantage that after a period of continuous growth, cell characteristics can change and dedifferentiate in culture. The serial passaging can cause genotypic and phenotypic variations and the state of confluency can also affect gene expression pattern in some cell lines. Due to this, the usage of internal standards during the evaluation of new potential candidates might be necessary to ensure comparability with previous results. The cytostatic effect of the novel GnRH-III bioconjugates was determined on HT-29 human colon cancer and MCF-7 human breast cancer cell lines by alamarBlue® assay. For a better comparison, the well-studied bioconjugates GnRH-III–[^8Lys(Dau=Aoa)] (K1) and GnRH-III–[^4Lys(Bu), ^8Lys(Dau=Aoa)] (K2) were used as positive controls and internal standards. The corresponding IC50 values were calculated by using nonlinear regression (sigmoidal dose response) (Figure 3, Table 2). Unfortunately, the D-Trp containing compounds 3 and 6 started to precipitate in both cell culture media at higher concentrations limiting the concentration down to a maximum of 10 µM. This effect could not be prevented by using DMSO instead of ddH2O for the preparation of the stock solutions. Unfortunately, the lower concentration range with a maximum of 10 µM was not sufficient to achieve the dose-response. […] Nevertheless, the replacement of ^6Asp by D-Asp, D-Glu or D-Trp led to a decreased cytostatic effect on the estimated cancer cell lines.
MCF-7 human breast adenocarcinoma cells were cultured in Dulbecco’s Modified Eagle Medium (DMEM, Lonza, Basel, Switzerland), supplemented with 10% (v/v) fetal bovine serum (FBS, Lonza), L-glutamine (2 mM, Lonza), non-essential amino acids (NEAA, Sigma-Aldrich Kft), sodium pyruvate (1 mM, Lonza) and penicillin-streptomycine (Lonza). […]
Cells were seeded to 96-well plates (Sarstedt, Nümbrecht, Germany, 5 × 10^3 cells/well) one day prior to the treatment in complete cell medium. […] Fluorescence was detected using Synergy H4 multi-mode microplate reader (BioTek, Winooski, VT, USA), excitation and emission wavelengths were set to 570 and 620 nm, respectively. Cytostasis was measured using 4 parallels, each experiment was repeated twice. Cytostatic effect (and IC50 values) were calculated by using nonlinear regression (sigmoidal dose response) with Origin Pro8 (OriginLab Corp., Northampton, MA, USA.).
In general terms: The colour change of resazurin is a common sign of viable cells or microbes.

Test [2] has as its target T1, GnRH-RI (Homo sapiens, UniProt P30968).
T1 sequence (P30968 1-328): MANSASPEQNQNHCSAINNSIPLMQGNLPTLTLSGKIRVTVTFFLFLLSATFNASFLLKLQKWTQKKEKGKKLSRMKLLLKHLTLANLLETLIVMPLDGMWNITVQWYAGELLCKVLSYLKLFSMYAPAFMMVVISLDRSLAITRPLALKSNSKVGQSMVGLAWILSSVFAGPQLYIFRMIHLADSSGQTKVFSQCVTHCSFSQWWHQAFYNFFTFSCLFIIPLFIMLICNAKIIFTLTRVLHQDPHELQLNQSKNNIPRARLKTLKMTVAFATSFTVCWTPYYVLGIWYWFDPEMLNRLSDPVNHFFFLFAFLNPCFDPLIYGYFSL
As to the kind of experiment: Competitive inhibition of [125I][6D-Trp]-GnRH-I binding, human pituitary membranes. Also on record: human prostate cancer cells were obtained from a patient at the time of initial surgical treatment; from tissue; host or cells: human prostate cancer specimen from a patient (surgery); membrane homogenate. Here is the method:
(§1) To investigate the binding affinity of the novel compounds to the GnRH-receptor, an in vitro ligand competition assay has been performed on human pituitary and GnRH-R positive human prostate cancer tissues. Hereby, the displacement of radiolabeled triptorelin by the unlabeled bioconjugates 1, 2, 4 and 5 was determined. For a better comparison, the bioconjugates K1 and K2 were also analyzed and used as reference. The obtained results summarized in Table 3 point out that all bioconjugates replaced [^125I]-triptorelin with IC50 values in low nanomolar range. […] (1.6 nM and 0.9 nM) and GnRH-II–[D-Lys^6(Dau=Aoa)] (4.2 nM and 2.1 nM).
(§2) Radiolabeled triptorelin was used for displacement studies to evaluate the binding affinity of the conjugates K1, K2, 1, 2, 4 and 5 to GnRH-RI on human pituitary and human prostate cancer cells. […] The binding affinities of the nonradio-labeled GnRH-III bioconjugates to GnRH-RI were determined by displacement of [^125I]-GnRH-I-[^6D-Trp] performing an in vitro ligand competition assay as recently reported. […] Supernatants were aspirated and the bottoms of the tubes containing the pellet were cut off and counted in a gamma counter. Protein concentration was determined by the method of Bradford using a Bio-Rad protein assay kit (Bio-Rad Laboratories, USA). […]

The target in test [3] is T1, GnRH-RI. Nature of the test: Competitive inhibition of [125I][6D-Trp]-GnRH-I binding, human prostate cancer membranes. Also on record: human prostate cancer cells were obtained from a patient at the time of initial surgical treatment; from tissue; host or cells: human prostate cancer specimen from a patient (surgery); membrane homogenate. Here is the method: as §1, §2

Read-outs that look alike come from different tables or passages of the source. Non-standard residues stand in square brackets, D forms with d. Residues, ends and D or L forms follow the SMILES beside them. *: point of attachment. Daunorubicin(13-NOCH2CO) = COc1cccc2c1C(=O)c1c(O)c3c(c(O)c1C2=O)C[C@@](O)(C(C)=NOCC(=O)*)C[C@@H]3O[C@H]1C[C@H](N)[C@H](O)[C@H](C)O1; pGlu = O=C1CC[C@@H](C(=O)O)N1; Butyryl = CCCC(=O)*

A word on the IC50: it is the concentration needed to halve the response being measured. Regarding `COc1cccc2c1C(=O)c1c(O)c3c(c(O)c1C2=O)C[C@@](O)(C(C)=NOCC(=O)NCCCC[C@H](NC(=O)[C@H](Cc1c[nH]c2ccccc12)NC(=O)[C@@H](CCC(=O)O)NC(=O)[C@H](Cc1c[nH]cn1)NC(=O)[C@H](CO)NC(=O)[C@H](Cc1c[nH]c2ccccc12)NC(=O)[C@H](Cc1c[nH]cn1)NC(=O)[C@@H]1CCC(=O)N1)C(=O)N1CCC[C@H]1C(=O)NCC(N)=O)C[C@@H]3O[C@H]1C[C@H](N)[C@H](O)[C@H](C)O1` [compound 2, [6D-Glu, 8Lys(Dau=Aoa)]] ([pGlu]HWSH[dE]WK(Daunorubicin(13-NOCH2CO))PG-NH2), the 50% inhibitory concentration (IC50) in test [1] (24 h) stood at 10.1 ± 1.4 µM; in test [2] (displacement of [125I]-triptorelin, human pituitary membranes, mean ± SE, read-out: IC50 pituitary), 23.5 ± 2.1 nM; in test [3] (displacement of [125I]-triptorelin, human prostate cancer membranes, mean ± SE, read-out: IC50 prostate cancer), 10.4 ± 1.3 nM.
Regarding `CCCC(=O)NCCCC[C@H](NC(=O)[C@H](Cc1c[nH]c2ccccc12)NC(=O)[C@H](Cc1c[nH]cn1)NC(=O)[C@@H]1CCC(=O)N1)C(=O)N[C@@H](Cc1c[nH]cn1)C(=O)N[C@H](CCC(=O)O)C(=O)N[C@@H](Cc1c[nH]c2ccccc12)C(=O)N[C@@H](CCCCNC(=O)CON=C(C)[C@]1(O)Cc2c(O)c3c(c(O)c2[C@@H](O[C@H]2C[C@H](N)[C@H](O)[C@H](C)O2)C1)C(=O)c1c(OC)cccc1C3=O)C(=O)N1CCC[C@H]1C(=O)NCC(N)=O` [compound 5, [4Lys(Bu), 6D-Glu, 8Lys(Dau=Aoa)]] ([pGlu]HWK(Butyryl)H[dE]WK(Daunorubicin(13-NOCH2CO))PG-NH2), the concentration for half-maximal inhibition (IC50) in test [1] (24 h treatment, then 48 h in complete medium, alamarBlue, mean ± SE, read-out: HT-29 IC50) worked out at 13.7 ± 2.6 µM; in test [2], 7.9 ± 1.1 nM; in test [3], 11.6 ± 2 nM.
